Reference: article PMC7391456, “Targeting fibroblast activation protein (FAP): next generation PET radiotracers using squaramide coupled bifunctional DOTA and DATA^5m chelators” (EJNMMI Radiopharmacy and Chemistry, 2020)
“And” between values parts separate entries of the source, which are not always exact repeats. Equal entries are not always repeated. Blank lines part the entries; values can stand above or below the compound they belong to.

Tests used:
HT-29 xenograft mice [1] = test: Micro-PET/CT imaging in HT-29 tumor-bearing mice; type: in vivo, mouse; details: PET 60 min p.i.
Description: (§1) In vivo tumor model: HT-29 (human colon adenocarcinoma, ATCC, Rockville, Maryland) cells were routinely cultured in Dulbecco’s Modified Eagle Medium supplemented with 10% heat inactivated foetal bovine serum (FBS), 2 mM glutamine, 1% sodium pyruvate and 1% penicillin/streptomycin (Gibco, Life technologies). After detaching the cells, the number of viable cells was counted with the automated Muse™ Cell Analyzer (Merck Millipore). For the HT-29 subcutaneous model, 10.10^6 viable cells, suspended in 100 μl PBS, were inoculated in the right hind leg of female 6-week-old CD1^−/− Foxn1nu mice (n = 3), obtained from Charles River Laboratories (L’Arbresle, France). The animals were kept under environmentally controlled conditions (12 h light/dark cycle, 20–24 °C and 40–70% relative humidity) with food and water ad libitum. When tumors reached an approximate volume of 400 mm^3, 3 mice underwent μPET imaging. All experimental procedures and protocols were performed in accordance with European Directive 86/609/EEC Welfare and Treatment of Animals and were approved by the local ethical commission (2017–070, University of Antwerp, Belgium).
Micro-PET imaging: Micro-PET scans were carried out using an Inveon small-animal PET/CT scanner (Siemens), after i.v. injection of 4 nmol of [^68Ga]-DOTA.SA.FAPi (8.6 MBq, molar activity of 2.1 GBq/ μmol) into tumor bearing mice (n = 3), under isoflurane anesthesia (5% for induction, 2% for maintenance). Static whole-body PET images were acquired 60 min after injection of the radiotracer. Following each PET acquisition, a whole-body CT scan was acquired to obtain the animal’s anatomical information individually.
For quantitative analysis, PET data were reconstructed using 3-dimensional ordered subset expectation maximization (OSEM3D, 16 subsets and 2 iterations) and 18 maximum a posteriori (MAP) iterations including scatter and attenuation correction (matrix size, 128 × 128 × 159; voxel size, 0.776 × 0.776 × 0.776 mm;). Volumes of interest (VOIs) were manually drawn on the PET/CT images using PMOD (version 3.6; PMOD Technologies) to delineate the tumor, heart and muscle.

HT-29 xenograft mice [2] = test: Ex vivo biodistribution in HT-29 xenograft mice; set-up: species or system mouse
Description: as §1
Ex vivo biodistribution: Immediately after the CT scans, the animals were sacrificed, the blood, tissues and organs were collected, weighed and the radioactivity was measured using an automatic γ-counter (Wizard^2 2480, PerkinElmer). Values were expressed as percentage of the injected dose per gram (%ID/g).

[3] = Gallium-68 stability against transmetallation (Fe, Cu, Ca, Mg) and transchelation (EDTA, DTPA); type: physicochemical
Description: (§2) Gallium-68 stability studies against transmetallation (Fe, Cu, Ca, Mg), transchelation (EDTA, DTPA) as well as in HS, EtOH and saline (0.9% isotone NaCl-solution) were performed. 50 μl of the [^68Ga]Ga-DOTA.SA.FAPi labeling solution with > 95% radiochemical purity were added to 1 mL of the respective media. The measured time points for gallium-68 were 15, 30, 45, 60, 90, 120 min. HS (human male AB plasma, USA origin) was bought from Sigma Aldrich, PBS was purchased from Sigma Aldrich and 0.9% saline from B. Braun Melsungen AG (Melsungen, Germany).

[4] = Stability studies of gallium-68 complexes in media (EtOH, human serum, saline, PBS); type: physicochemical
Description: as §2

Human recombinant PREP = target: T1, Human recombinant PREP (Homo sapiens, UniProt P48147); test: PREP inhibition assay (IC50, N-succinyl-Gly-Pro-AMC substrate); type: biochemical; details: N-succinyl-Gly-Pro-AMC 250 μM, pH 7.4, 15 min pre-incubation at 37 °C
T1 sequence (P48147 1-710): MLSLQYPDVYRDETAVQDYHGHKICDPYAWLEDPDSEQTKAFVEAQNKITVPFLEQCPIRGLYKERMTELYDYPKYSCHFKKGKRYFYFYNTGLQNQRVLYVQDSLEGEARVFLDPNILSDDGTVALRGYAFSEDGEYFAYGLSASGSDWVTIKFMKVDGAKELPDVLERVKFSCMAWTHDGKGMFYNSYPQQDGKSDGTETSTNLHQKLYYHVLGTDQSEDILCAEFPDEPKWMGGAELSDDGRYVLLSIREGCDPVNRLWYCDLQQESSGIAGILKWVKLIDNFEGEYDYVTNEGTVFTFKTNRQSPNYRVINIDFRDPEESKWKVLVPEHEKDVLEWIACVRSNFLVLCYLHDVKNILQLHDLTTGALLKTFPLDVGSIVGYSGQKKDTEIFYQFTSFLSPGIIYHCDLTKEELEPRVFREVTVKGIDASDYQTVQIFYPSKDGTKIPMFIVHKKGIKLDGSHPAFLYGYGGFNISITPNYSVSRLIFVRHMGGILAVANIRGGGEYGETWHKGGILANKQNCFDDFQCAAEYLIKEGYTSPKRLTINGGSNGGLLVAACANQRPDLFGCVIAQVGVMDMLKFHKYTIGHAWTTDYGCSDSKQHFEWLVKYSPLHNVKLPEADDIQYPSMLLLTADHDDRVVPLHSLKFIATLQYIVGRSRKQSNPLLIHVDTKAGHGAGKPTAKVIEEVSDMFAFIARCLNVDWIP
Excerpt: (§3) Enzymes: A gateway-entry clone for human FAP was purchased from Dharmacon (Accession number DQ891423) and the human secretion signal was replaced with the HoneyBee mellitin secretion signal. For transfection and expression of FAP in Sf9 insect cells, the C-terminal BaculoDirect kit from LifeTechnologies was used. The enzyme was purified from the supernatant of the insect cells using immobilized Ni-chelating chromatography (GE healthcare, Diegem, Belgium), followed by anion-exchange chromatography using a 1 mL HiTrap Q (GE healthcare, Diegem, Belgium). Human recombinant PREP was expressed in BL21(DE3) cells and purified using immobilized Co-chelating chromatography (GE healthcare) followed by anion-exchange chromatography on a 1 ml Mono Q column (GE healthcare).
(§4) Eight concentrations of inhibitors were tested. The final DMSO concentration is kept constant during the experiment to exclude any effects. Inhibitors were pre-incubated with the enzyme for 15 min at 37 °C, afterwards the substrate was added and the velocities of AMC release were measured kinetically at λex = 380 nm, λem = 465 nm for at least 10 min at 37 °C. The Infinite 200 (Tecan Group Ltd.) micro-titer plate reader and the Magellan software were used for measurement and data processing, respectively.
(§5) The data were fitted using a non-linear fit model in GraFit 7 software, according to the following equation: y=range/1+x/IC50^s where y is the value of the residual enzymatic activity compared to a non-inhibited sample, x is the final inhibitor concentration in the assay, s is the slope factor and the IC50 is the half maximal inhibitory concentration.

human FAP = target: T2, human FAP (Homo sapiens, UniProt Q12884); test: FAP inhibition assay (IC50, Z-Gly-Pro-AMC substrate); type: biochemical
T2 construct: the human secretion signal was replaced with the HoneyBee mellitin secretion signal; HoneyBee mellitin secretion signal (replaces the native signal-anchor) (N); C-terminal tag of the BaculoDirect C-term kit (C); made in house; host or cells: Sf9 insect cells (baculovirus); purified from the supernatant
T2 sequence (Q12884 26-760 limits assumed): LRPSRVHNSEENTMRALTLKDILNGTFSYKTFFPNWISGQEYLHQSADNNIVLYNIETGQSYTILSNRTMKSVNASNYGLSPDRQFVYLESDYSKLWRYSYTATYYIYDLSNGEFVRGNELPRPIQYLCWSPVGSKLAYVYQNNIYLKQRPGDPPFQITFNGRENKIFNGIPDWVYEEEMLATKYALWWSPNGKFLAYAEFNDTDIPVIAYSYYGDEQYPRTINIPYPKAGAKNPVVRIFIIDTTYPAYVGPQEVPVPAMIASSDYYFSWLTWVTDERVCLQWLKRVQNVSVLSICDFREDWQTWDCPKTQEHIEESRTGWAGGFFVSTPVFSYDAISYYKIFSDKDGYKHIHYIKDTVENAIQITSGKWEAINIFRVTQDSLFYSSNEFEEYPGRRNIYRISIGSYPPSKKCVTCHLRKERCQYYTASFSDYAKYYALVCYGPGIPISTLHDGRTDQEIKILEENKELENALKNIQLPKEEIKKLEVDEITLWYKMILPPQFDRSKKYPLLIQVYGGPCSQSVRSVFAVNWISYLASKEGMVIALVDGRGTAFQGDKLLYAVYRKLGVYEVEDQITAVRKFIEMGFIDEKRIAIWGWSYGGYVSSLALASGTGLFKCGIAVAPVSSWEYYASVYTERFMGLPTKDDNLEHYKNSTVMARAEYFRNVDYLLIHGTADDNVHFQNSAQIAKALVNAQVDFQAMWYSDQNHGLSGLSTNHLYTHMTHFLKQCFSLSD
Excerpt: as §3
as §4, with “was” for “is”, “any solvent” for “any”, “processing” for “processing,”
as §5

[5] = HT-29 xenograft mice, 1 h p.i., N=3
[6] = ex vivo biodistribution, 1 h p.i.

SUVmean heart (HT-29 xenograft mice [1]): 0.15 ± 0.01 and 0.15 | SUVmean kidneys (HT-29 xenograft mice [1]): 0.27 ± 0.11 and 0.27 | SUVmean liver (HT-29 xenograft mice [1]): 0.22 ± 0.08 and 0.22 | SUVmean muscle (HT-29 xenograft mice [1]): 0.18 ± 0.07 and 0.18 | SUVmean small intestine (HT-29 xenograft mice [1]): 0.37 ± 0.14 | SUVmean tumor (HT-29 xenograft mice [1]): 0.75 ± 0.09 and 0.75 | Ex vivo biodistribution, Tumor (HT-29 xenograft mice [2]; HT-29 xenograft mice, 1 h (60 min) p.i., N=3): 5.2 %ID/g | Ex vivo biodistribution, Bladder (HT-29 xenograft mice [2]; [5]): 0.96 %ID/g | Ex vivo biodistribution, Blood (HT-29 xenograft mice [2]; [5]): 0.56 %ID/g | Ex vivo biodistribution, Bone (HT-29 xenograft mice [2]; [5]): 3.56 %ID/g | Ex vivo biodistribution, Brain (HT-29 xenograft mice [2]; [5]): 1.27 %ID/g | Ex vivo biodistribution, Fat (HT-29 xenograft mice [2]; [5]): 0.38 %ID/g | Ex vivo biodistribution, Heart (HT-29 xenograft mice [2]; [5]): 0.22 %ID/g | Ex vivo biodistribution, Kidneys (HT-29 xenograft mice [2]; [5]): 1.77 %ID/g | Ex vivo biodistribution, Large Intestine (HT-29 xenograft mice [2]; [5]): 0.21 %ID/g | Ex vivo biodistribution, Liver (HT-29 xenograft mice [2]; [5]): 0.70 %ID/g | Ex vivo biodistribution, Lungs (HT-29 xenograft mice [2]; [5]): 0.33 %ID/g | Ex vivo biodistribution, Muscle (HT-29 xenograft mice [2]; [5]): 0.45 %ID/g | Ex vivo biodistribution, Pancreas (HT-29 xenograft mice [2]; [5]): 0.51 %ID/g | Ex vivo biodistribution, Skin (HT-29 xenograft mice [2]; [5]): 0.04 %ID/g | Ex vivo biodistribution, Small Intestine (HT-29 xenograft mice [2]; [5]): 1.81 %ID/g | Ex vivo biodistribution, Spleen (HT-29 xenograft mice [2]; [5]): 0.23 %ID/g | Ex vivo biodistribution, Stomach (HT-29 xenograft mice [2]; [5]): 0.21 %ID/g | tumor-to-blood ratio (HT-29 xenograft mice [2]; [6]): 9.2 ± 1.1 | tumor-to-bone ratio (HT-29 xenograft mice [2]; [6]): 1.5 ± 0.2 | tumor-to-large intestine ratio (HT-29 xenograft mice [2]; [6]): 24.9 ± 1.7 | tumor-to-muscle ratio (HT-29 xenograft mice [2]; [6]): 11.5 ± 2.2 | tumor-to-small intestine ratio (HT-29 xenograft mice [2]; [6]): 2.9 ± 0.8 | Stability against transmetallation ([3]; against Ca, after 2 h): > 95% | Stability against transmetallation ([3]; against Cu, after 2 h): > 95% | Stability against transchelation ([3]; against DTPA, after 2 h): over 98% | Stability against transchelation ([3]; against EDTA, after 2 h): over 98% | Stability against transmetallation ([3]; against Fe, after 90 min): > 95% | Stability against transmetallation ([3]; against Fe, after 2 h): over 92% | Stability against transmetallation ([3]; against Mg, after 2 h): > 95% | Stability, intact conjugate ([4]; ethanol (EtOH), over 2 h at 37 °C): over 98% | Stability, intact conjugate ([4]; human serum (HS), over 2 h): over 98% | Stability, intact conjugate ([4]; saline 0.9% (NaCl), over 2 h): over 98%
Structure (SMILES): N#C[C@@H]1CC(F)(F)CN1C(=O)CNC(=O)c1ccnc2ccc(OCCCCNc3c(NCCNC(=O)CN4CCN(CC(=O)[O-])CCN(CC(=O)[O-])CCN(CC(=O)[O-])CC4)c(=O)c3=O)cc12.[68Ga+3] [[^68Ga]Ga-DOTA.SA.FAPi]

IC50 (Human recombinant PREP): 1700 ± 100 nM | IC50 (human FAP; Z-Gly-Pro-AMC 50 μM, pH 8, 15 min pre-incubation at 37 °C): 0.8 ± 0.2 nM | Selectivity index (IC50 PREP / IC50 FAP) (human FAP; ratio of the IC50 values for FAP and PREP): 2113 | Stability in different media, intact conjugate ([4]; different media (summary statement)): more than 95%
Structure (SMILES): CN(CC(=O)O)C1(CCCCC(=O)NCCNc2c(NCCCCOc3ccc4nccc(C(=O)NCC(=O)N5CC(F)(F)C[C@H]5C#N)c4c3)c(=O)c2=O)CN(CC(=O)O)CCN(CC(=O)O)C1 [DATA^5m.SA.FAPi, (S)-2,2′-(6-((carboxymethyl)(methyl)amino)-6-(5-((2-((2-((4-((4-((2-(2-cyano-4,4-difluoropyrrolidin-1-yl)-2-oxoethyl)carbamoyl)quinolin-6-yl)oxy)butyl)amino)-3,4-dioxocyclobut-1-en-1-yl)amino)ethyl)amino)-5-oxopentyl)-1,4-diazepane-1,4-diyl) diacetic acid]
